Measurements: the CheMixHub viscosity set

Assay: xn = mol fraction of the nth substance listed
Conditions: 101 kPa

CC(O)CCO (stereo not given) + NCCN
viscosity [mPa·s]
Conditions	298.15 K	303.15 K	308.15 K	313.15 K	318.15 K
x1 = 0.0339	1.64	1.4	1.3	1.21	1.04
x1 = 0.069	1.98	1.66	1.56	1.42	1.23
x1 = 0.1053	2.43	2.01	1.82	1.7	1.42
x1 = 0.1429	3.03	2.47	2.24	2.05	1.71
x1 = 0.1819	3.82	3.07	2.73	2.54	2.05
x1 = 0.2223	4.9	3.88	3.4	3.08	2.49
x1 = 0.2642	6.37	4.97	4.3	3.85	3.09
x1 = 0.3078	8.35	6.46	5.45	4.85	3.81
x1 = 0.353	11.2	8.5	7.1	6.21	4.83
x1 = 0.4001	15.1	11.2	9.15	7.91	6.04
x1 = 0.4491	20.4	14.9	12	10.2	7.56
x1 = 0.5001	27.3	19.6	15.4	13.1	9.61
x1 = 0.5533	36	25.4	19.7	16.4	12
x1 = 0.6088	46.1	32.1	24.8	20.4	14.8
x1 = 0.6667	56.3	39.4	29.9	24.5	18.2
x1 = 0.7273	66.7	47.4	35.9	28.7	21.5
x1 = 0.7908	77.5	56	41.7	32.4	24.4
x1 = 0.8572	85.7	62	46.2	35.8	26.9
x1 = 0.9269	91.6	66.1	49.3	38.2	28.6

c1ccncc1 + O
viscosity [mPa·s]
Conditions	298.15 K	303.15 K	308.15 K	313.15 K	318.15 K
x1 = 0.0201	1.122	0.9952	0.8906	0.8042	0.7251
x1 = 0.0503	1.379	1.214	1.078	0.9651	0.8727
x1 = 0.0701	1.532	1.342	1.187	1.058	0.9504
x1 = 0.0999	1.725	1.505	1.325	1.175	1.05
x1 = 0.1203	1.837	1.6	1.405	1.244	1.11
x1 = 0.1499	1.972	1.713	1.501	1.326	1.18
x1 = 0.1701	2.05	1.778	1.556	1.373	1.22
x1 = 0.1999	2.139	1.853	1.619	1.426	1.266
x1 = 0.2201	2.189	1.897	1.657	1.467	1.302
x1 = 0.2502	2.235	1.934	1.688	1.485	1.316
x1 = 0.2701	2.253	1.949	1.701	1.496	1.326
x1 = 0.2999	2.265	1.96	1.711	1.505	1.334
x1 = 0.3198	2.26	1.957	1.709	1.504	1.333
x1 = 0.35	2.235	1.937	1.694	1.492	1.324
x1 = 0.4002	2.15	1.87	1.64	1.45	1.289
x1 = 0.4499	2.023	1.77	1.56	1.384	1.236
x1 = 0.5002	1.871	1.648	1.461	1.304	–
x1 = 0.5998	1.559	1.395	1.255	1.134	–
x1 = 0.7002	1.297	1.177	1.073	0.9812	–
x1 = 0.8004	1.109	1.018	0.9375	0.8659	–
x1 = 0.8999	0.983	0.9101	0.8448	0.7862	–
